# Patent publication US20250215030A1, “STAT MODULATORS AND USES THEREOF” (Recludix Pharma, Inc., priority 2022, published 2025)
# Read-outs that look alike come from different tables or passages of the source.
# Molecular target: T1, pSTAT3 (pY705-STAT3) (Homo sapiens, UniProt P40763)
# T1 construct: host or cells: cryopreserved PBMC
# Assay: MSD-pSTAT-PBMC Assay (pSTAT3, IL-6 stimulated)
# Assay type: cell-based
# Method in brief: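 Phospho-STAT levels captured on anti-STAT3 or anti-STAT6 plates and detected with anti-pY705 or anti-pY641 antibodies (MSD read-out). Cryopreserved human PBMCs received compound for 3 h before a 10 min pulse of IL-6 (10 ng/mL, STAT3) or IL-4 (1 ng/mL, STAT6). IC50 fitted after unstimulated-background subtraction and DMSO normalization.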
# [1] = PBMC, compound 3 hrs, then 10 ng/mL IL-6 for 10 min, MSD pY705-STAT3, read-out: pSTAT3
# T1 sequence (P40763 whole entry): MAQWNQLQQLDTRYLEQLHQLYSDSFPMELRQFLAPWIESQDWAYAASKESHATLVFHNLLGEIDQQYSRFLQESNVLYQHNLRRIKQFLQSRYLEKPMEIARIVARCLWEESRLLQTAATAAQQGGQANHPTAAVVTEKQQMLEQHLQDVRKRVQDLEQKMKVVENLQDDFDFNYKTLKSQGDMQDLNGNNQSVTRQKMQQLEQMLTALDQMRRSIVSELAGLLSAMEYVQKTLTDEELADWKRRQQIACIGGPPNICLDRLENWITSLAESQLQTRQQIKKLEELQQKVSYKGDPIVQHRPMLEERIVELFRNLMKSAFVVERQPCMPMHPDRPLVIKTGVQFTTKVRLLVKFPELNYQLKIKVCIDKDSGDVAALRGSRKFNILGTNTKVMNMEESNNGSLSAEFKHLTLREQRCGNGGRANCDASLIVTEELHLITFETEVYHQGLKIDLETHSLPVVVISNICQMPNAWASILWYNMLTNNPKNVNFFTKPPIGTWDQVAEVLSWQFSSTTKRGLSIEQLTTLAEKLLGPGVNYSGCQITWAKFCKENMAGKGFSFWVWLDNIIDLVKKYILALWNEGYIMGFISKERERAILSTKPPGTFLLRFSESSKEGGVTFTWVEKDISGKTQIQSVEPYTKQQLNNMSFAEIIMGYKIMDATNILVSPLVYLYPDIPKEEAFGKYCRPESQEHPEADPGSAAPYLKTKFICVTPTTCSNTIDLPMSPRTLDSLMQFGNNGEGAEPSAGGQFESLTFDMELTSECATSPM
SMILES,IC50 [1],IC50
"CCCOC(=O)[C@H](C)NP(=O)(Oc1ccccc1)C(F)c1ccc2sc(C(=O)N[C@H]3C[C@@H]4C[C@@H]4C[C@H]4CC[C@@H](C(=O)N5CC(c6ncco6)C5)N4C3=O)cc2c1 (stereo partly drawn) [Compound 323, propyl ((fluoro(2-(((3S,6S,7aS,8aR,9aR)-3-(3-(oxazol-2-yl)azetidine-1-carbonyl)-5-oxodecahydro-1H-cyclopropa[d]pyrrolo[1,2-a]azocin-6-yl)carbmaoyl)benzo[b]thiophen-5-yl)methyl)(phenoxy)phosphoryl)-L-alaninate]",< 0.1 µM,–
"CCCOC(=O)[C@H](C)NP(=O)(Oc1ccccc1)C(F)c1ccc2sc(C(=O)N[C@H]3C[C@@H]4C[C@@H]4C[C@H]4CC[C@@H](C(=O)N5CC(c6ncc(C)o6)C5)N4C3=O)cc2c1 (stereo partly drawn) [Compound 325, propyl ((fluoro(2-(((3S,6S,7aS,8aR,9aR)-3-(3-(5-methyloxazol-2-yl)azetidine-1-carbonyl)-5-oxodecahydro-1H-cyclopropa[d]pyrrolo[1,2-a]azocin-6-yl)carbamoyl)benzo[b]thiophen-5-yl)methyl)(phenoxy)phosphoryl)-L-alaninate]",0.1 to 1 µM,–
"CCOC(=O)[C@H](C)NP(=O)(OCC(F)(F)F)C(F)c1ccc2sc(C(=O)N[C@H]3C[C@@H]4C[C@@H]4C[C@H]4CC[C@@H](C(=O)N5CC(c6cnccc6C)C5)N4C3=O)cc2c1 (stereo partly drawn) [Compound 329, ethyl ((fluoro(2-(((3S,6S,7aS,8aR,9aR)-3-(3-(4-methylpyridin-3-yl)azetidine-1-carbonyl)-5-oxodecahydro-1H-cyclopropa[d]pyrrolo[1,2-a]azicin-6-yl)carbamoyl)benzo[b]thiophen-5-yl)methyl)(2,2,2-trifluoroethoxy)phosphoryl)-L-alaninate]",< 0.1 µM,–
"CCCOC(=O)[C@H](C)NP(=O)(Oc1ccccc1)C(F)c1ccc2sc(C(=O)N[C@H]3C[C@H]4C[C@H]4C[C@H]4CC[C@@H](C(=O)N5CC(c6nncn6C)C5)N4C3=O)cc2c1 (stereo partly drawn) [Compound 332, propyl ((fluoro(2-(((3S,6S,7aR,8aS,9aR)-3-(3-(4-methyl-4H-1,2,4-triazol-3-yl)azetidine-1-carbonyl)-5-oxodecahydro-1H-cyclopropa[d]pyrrolo[1,2-a]azocin-6-yl)carbamoyl)benzo[b]thiophen-5-yl)methyl)(phenoxy)phosphoryl)-L-alaninate]",> 3 µM,–
"CCCOC(=O)[C@H](C)NP(=O)(Oc1ccccc1)C(F)c1ccc2sc(C(=O)N[C@H]3C[C@H]4C[C@H]4C[C@H]4CC[C@@H](C(=O)N5CC(c6ncccn6)C5)N4C3=O)cc2c1 (stereo partly drawn) [Compound 338, propyl ((fluoro(2-(((3S,6S,7aR,8aS,9aR)-5-oxo-3-(3-(pyrimidin-2-yl)azetidine-1-carbonyl)decahydro-1H-cyclopropa[d]pyrrolo[1,2-a]azocin-6-yl)carbamoyl)benzo[b]thiophen-5-yl)methyl)(phenoxy)phosphoryl)-L-alaninate]",< 0.1 µM,–
"CCCOC(=O)[C@H](C)NP(=O)(Oc1ccccc1)C(F)c1ccc2sc(C(=O)N[C@H]3C[C@@H]4C[C@@H]4C[C@H]4CC[C@@H](C(=O)N5CC(c6cc(C)on6)C5)N4C3=O)cc2c1 (stereo partly drawn) [Compound 359, propyl ((fluoro(2-(((3S,6S,7aS,8aR,9aR)-3-(3-(5-methylisoxazol-3-yl)azetidine-1-carbonyl)-5-oxodecahydro-1H-cyclopropa[d]pyrrolo[1,2-a]azocin-6-yl)carbamoyl)benzo[b]thiophen-5-yl)methyl)(phenoxy)phosphoryl)-L-alaninate]",< 0.1 µM,–
"CCCOC(=O)[C@H](C)NP(=O)(Oc1ccccc1)C(F)c1ccc2sc(C(=O)N[C@H]3C[C@@H]4C[C@@H]4C[C@H]4CC[C@@H](C(=O)N5CC(c6nc(C)no6)C5)N4C3=O)cc2c1 (stereo partly drawn) [Compound 360, propyl ((fluoro(2-(((3S,6S,7aS,8aR,9aR)-3-(3-(3-methyl-1,2,4-oxadiazol-5-yl)azetidine-1-carbonyl)-5-oxodecahydro-1H-cyclopropa[d]pyrrolo[1,2-a]azocin-6-yl)carbamoyl)benzo[b]thiophen-5-yl)methyl)(phenoxy)phosphoryl)-L-alaninate]",< 0.1 µM,–
"CCCOC(=O)[C@H](C)NP(=O)(Oc1ccccc1)C(F)c1ccc2sc(C(=O)N[C@H]3C[C@@H]4C[C@@H]4C[C@H]4CC[C@@H](C(=O)N5CC(c6cc(C)no6)C5)N4C3=O)cc2c1 (stereo partly drawn) [Compound 361, propyl ((fluoro(2-(((3S,6S,7aS,8aR,9aR)-3-(3-(3-methylisoxazol-5-yl)azetidine-1-carbonyl)-5-oxodecahydro-1H-cyclopropa[d]pyrrolo[1,2-a]azocin-6-yl)carbamoyl)benzo[b]thiophen-5-yl)methyl)(phenoxy)phosphoryl)-L-alaninate]",< 0.1 µM,–
"CCCOC(=O)[C@H](C)NP(=O)(Oc1ccccc1)C(F)c1ccc2sc(C(=O)N[C@H]3C[C@@H]4C[C@@H]4C[C@H]4CC[C@@H](C(=O)N5CC(c6cc(OC)no6)C5)N4C3=O)cc2c1 (stereo partly drawn) [Compound 362, propyl ((fluoro(2-(((3S,6S,7aS,8aR,9aR)-3-(3-(3-methoxyisoxazol-5-yl)azetidine-1-carbonyl)-5-oxodecahydro-1H-cyclopropa[d]pyrrolo[1,2-a]azocin-6-yl)carbamoyl)benzo[b]thiophen-5-yl)methyl)(phenoxy)phosphoryl)-L-alaninate]",< 0.1 µM,–
"CCCOC(=O)[C@H](C)NP(=O)(Oc1ccccc1)C(F)c1ccc2sc(C(=O)N[C@H]3C[C@@H]4C[C@@H]4C[C@H]4CC[C@@H](C(=O)N5CC(CS(C)(=O)=O)C5)N4C3=O)cc2c1 (stereo partly drawn) [Compound 363, propyl ((fluoro(2-(((3S,6S,7aS,8aR,9aR)-3-(3-((methylsulfonyl)methyl)azetidine-1-carbonyl)-5-oxodecahydro-1H-cyclopropa[d]pyrrolo[1,2-a]azocin-6-yl)carbamoyl)benzo[b]thiophen-5-yl)methyl)(phenoxy)phosphoryl)-L-alaninate]",0.1 to 1 µM,–
"Cc1ccncc1C1CN(C(=O)[C@@H]2CC[C@@H]3C[C@H]4C[C@H]4C[C@H](NC(=O)c4cc5cc(C(F)P(=O)(N[C@@H](C)C(=O)OCC(C)C)Oc6ccccc6)ccc5s4)C(=O)N32)C1 (stereo partly drawn) [Compound 374, isobutyl ((fluoro(2-(((3S,6S,7aS,8aR,9aR)-3-(3-(4-methylpyridin-3-yl)azetidine-1-carbonyl)-5-oxodecahydro-1H-cyclopropa[d]pyrrolo[1,2-a]azocin-6-yl)carbamoyl)benzo[b]thiophen-5-yl)methyl)(phenoxy)phosphoryl)-L-alaninate]",< 0.1 µM,–
"CCCOC(=O)[C@H](C)NP(=O)(Oc1ccccc1)C(F)c1ccc2sc(C(=O)N[C@H]3C[C@@H]4C[C@@H]4C[C@H]4CC[C@@H](C(=O)N5CC(c6cc(C(F)F)on6)C5)N4C3=O)cc2c1 (stereo partly drawn) [Compound 381, propyl(((2-(((3S,6S,7aS,8aR,9aR)-3-(3-(5-(difluoromethyl)isoxazol-3-yl)azetidine-1-carbonyl)-5-oxodecahydro-1H-cyclopropa[d]pyrrolo[1,2-a]azocin-6-yl)carbamoyl)benzo[b]thiophen-5-yl)fluoromethyl)(phenoxy)phosphoryl)-L-alaninate]",–,< 0.1 µM
"CCCOC(=O)[C@H](C)NP(=O)(Oc1ccccc1)C(F)c1ccc2sc(C(=O)N[C@H]3C[C@@H]4C[C@@H]4C[C@H]4CC[C@@H](C(=O)N[C@H]5CN(C(N)=O)C[C@@H]5F)N4C3=O)cc2c1 (stereo partly drawn) [Compound 382, propyl(((2-(((3S,6S,7aS,8aR,9aR)-3-(((3S,4S)-1-carbamoyl-4-fluoropyrrolidin-3-yl)carbamoyl)-5-oxodecahydro-1H-cyclopropa[d]pyrrolo[1,2-a]azocin-6-yl)carbamoyl)benzo[b]thiophen-5-yl)fluoromethyl)(phenoxy)phosphoryl)-L-alaninate]",–,0.1 to 1 µM
"CCCOC(=O)[C@H](C)NP(=O)(Cc1ccc2sc(C(=O)N[C@H]3C[C@H]4C[C@H]4C[C@H]4CC[C@@H](C(=O)N5CC(c6cnccc6CC)C5)N4C3=O)cc2c1)Oc1ccccc1 (stereo partly drawn) [Compound 392, propyl(((2-(((3S,6S,7aR,8aS,9aR)-3-(3-(4-ethylpyridin-3-yl)azetidine-1-carbonyl)-5-oxodecahydro-1H-cyclopropa[d]pyrrolo[1,2-a]azocin-6-yl)carbamoyl)benzo[b]thiophen-5-yl)methyl)(phenoxy)phosphoryl)-L-alaninate]",–,< 0.1 µM
"CCCOC(=O)[C@H](C)N[P@](=O)(Oc1ccccc1)[C@H](F)c1ccc2sc(C(=O)N[C@H]3C[C@H]4C[C@H]4C[C@H]4CC[C@@H](C(=O)N5CC(c6cnccc6N6CCOCC6)C5)N4C3=O)cc2c1 [Compound 395, propyl((R)-((S)-fluoro(2-(((3S,6S,7aR,8aS,9aR)-3-(3-(4-morpholinopyridin-3-yl)azetidine-1-carbonyl)-5-oxodecahydro-1H-cyclopropa[d]pyrrolo[1,2-a]azocin-6-yl)carbamoyl)benzo[b]thiophen-5-yl)methyl)(phenoxy)phosphoryl)-L-alaninate]",–,< 0.1 µM
"CCCOC(=O)[C@H](C)N[P@@](=O)(Oc1ccccc1)[C@H](F)c1ccc2sc(C(=O)N[C@H]3C[C@H]4C[C@H]4C[C@H]4CC[C@@H](C(=O)N5CC(c6cnccc6N6CCOCC6)C5)N4C3=O)cc2c1 [Compound 396, propyl((S)-((S)-fluoro(2-(((3S,6S,7aR,8aS,9aR)-3-(3-(4-morpholinopyridin-3-yl)azetidine-1-carbonyl)-5-oxodecahydro-1H-cyclopropa[d]pyrrolo[1,2-a]azocin-6-yl)carbamoyl)benzo[b]thiophen-5-yl)methyl)(phenoxy)phosphoryl)-L-alaninate]",–,< 0.1 µM
"CCCOC(=O)[C@H](C)NP(=O)(Cc1ccc2sc(C(=O)N[C@H]3C[C@H]4C[C@H]4C[C@H]4CC[C@@H](C(=O)N5CC(c6cnccc6N(C)C)C5)N4C3=O)cc2c1)Oc1ccccc1 (stereo partly drawn) [Compound 397, propyl(((2-(((3S,6S,7aR,8aS,9aR)-3-(3-(4-(dimethylamino)pyridin-3-yl)azetidine-1-carbonyl)-5-oxodecahydro-1H-cyclopropa[d]pyrrolo[1,2-a]azocin-6-yl)carbamoyl)benzo[b]thiophen-5-yl)methyl)(phenoxy)phosphoryl)-L-alaninate]",–,< 0.1 µM
